Experimental data published in patent US9381173B2, “Isolated stereoisomeric forms of (S)2-N(3-O-(propan 2-Ol)-1-propyl-4-hydroxybenzene)-3-phenylpropylamide” (Novaremed Ltd., priority 2011, dated 2016).

Columns and labels:
Lyn B = Lyn B (Homo sapiens, UniProt P07948); experiment: Lyn B mobility-shift kinase assay (Caliper LabChip 3000); format: biochemical; details: 5 concentrations, duplicate wells; listed as (S,S) enantiomer
Method: (§1) Each compound and concentration was tested in duplicate wells.
(§2) Data points are the averages of duplicate wells. Error bars represent the mean±replicate % activity.

[1] = Body weight in the Chung model study; format: in vivo, rats; details: for Mean group body weight Day 14: before first administration; for Mean group body weight Day 7: before treatment; for Mean group body weight Baseline: study day -1, before surgery and treatment
Method: Body Weights: Body weight was measured at regular intervals on study days −1 for baseline values and seven days after the surgery (study day 7).

[2] = test system: spinal nerve ligation (SNL or Chung) model for neuropathic pain in rats; experiment: Spinal nerve ligation (Chung) model, Von Frey test for mechanical allodynia; format: in vivo; details: for delta force right minus left leg, Day 14 Pretreatment / mean Von Frey force, left operated leg, Day 14 Pretreatment: before first dose; for difference (delta) force between right healthy leg and left operated leg, Baseline: before operation; for mean Von Frey force required for withdrawal of the left operated leg, Baseline: day -1, before operation
Method: The antinociceptive and analgesic activity of E1 in a spinal nerve ligation (SNL or Chung) model for neuropathic pain in rats was evaluated.
On study day 0, all animals underwent Chung surgery, which consisted of an operation where the left L5-L6 spinal nerves were isolated and cut. Fourteen days post surgery the animals were selected using pain threshold results from the Von Frey test. Only animals that indicated signs of mechanical allodynia were included in the study. After the selection process, the animals were grouped and Test Items were administered via IP. The pain response was measured using Von Frey methodology at 2, 5 and 24 hours after Test Item administration on study day 14, and at 2, 5, 24 and 48 hours on study day 21 after 7 days of Test Item administration.
Species: 50 SD young adult male rats, 225-260 g at study initiation (Harlan Laboratories, Israel. Ltd.)
Neuropathic Pain Induction: While under anesthesia using ketamine/xylazine sodium and after the area was shaved, the rat was placed in a prone position and the left paraspinal muscles were separated from the spinous process at the L4-S2 levels. The L6 vertebral transverse process was carefully removed with a small rongeur to visually identify the L5-L6 spinal nerves. The left L5-L6 spinal nerves were cut. The muscle was then closed with 4-0 silk sutures and the skin was closed by a clamp. Following surgery, the rats were returned to the cage and remained under a heating lamp until they awoke.
Inclusion/Exclusion Criteria for Pre-Selection: On post-operative day 14, animals were tested for mechanical allodynia using Von Frey methodology prior to being placed in their experimental groups. Only animals with a pain threshold of ≦26 g for the operated leg were included in the study. In order to form homogenous treatment groups and to adhere to randomization, all the operated rats were grouped according to inclusion/exclusion criteria.
The Von Frey test was performed prior to Test Items' administrations (pre-TI injection) and at 2 and 5 hours after TI administration (post-TI injection) on study days 14 and 21.
Von Frey test was performed prior to TI's administration on study day 15 (24 hours post-TI's administration on study day 14) and on study days 22 and 23 (24 and 48 hours respectively post-TI's administration on study day 21).
Pain Response Evaluation: Pain response was evaluated using Von Frey test for mechanical allodynia.
The Von Frey test for mechanical allodynia is based on applying short pulses of pressure that are not painful to a naive animal. In fact, in order to achieve paw withdrawal from a naive animal, the pressure applied is sometimes higher than 60 g. This often requires the researcher to apply enough pressure with the Von Frey filament to actually lift the paw of the naive animal. However, in disease conditions, the animals are sensitive to much lower pressure and experience pain as a result of a normally non-painful stimulus.
Mechanical Allodynia Evaluation (Von Frey Testing): Allodynic response to tactile stimulation was assessed using the Von Frey apparatus (Touch®).
The rats were placed in an enclosure and positioned on a metal mesh surface, but allowed to move freely. The rats' cabins were covered with red cellophane to diminish environmental disturbances. The test began after cessation of exploratory behavior. The set of Von Frey monofilaments provide an approximate logarithmic scale of actual force and a linear scale of perceived intensity as provided by the manufacturer of the Von Frey apparatus (Ugo Basil). The operating principle: When the tip of a fiber of given length and diameter is pressed against the skin at right angles, the force of application increases as long as the researcher continues to advance the probe until the fiber bends. After the fiber bends, the probe continues to advance, causing the fiber to bend more, but without additional force being applied to the paw. […]

Lyn A = Lyn A (Homo sapiens, UniProt P07948); experiment: Lyn A mobility-shift kinase assay (Caliper LabChip 3000); format: biochemical; details: 5 concentrations, duplicate wells; listed as (S,S) enantiomer
Sequence of Lyn A (P07948 whole entry, species assumed): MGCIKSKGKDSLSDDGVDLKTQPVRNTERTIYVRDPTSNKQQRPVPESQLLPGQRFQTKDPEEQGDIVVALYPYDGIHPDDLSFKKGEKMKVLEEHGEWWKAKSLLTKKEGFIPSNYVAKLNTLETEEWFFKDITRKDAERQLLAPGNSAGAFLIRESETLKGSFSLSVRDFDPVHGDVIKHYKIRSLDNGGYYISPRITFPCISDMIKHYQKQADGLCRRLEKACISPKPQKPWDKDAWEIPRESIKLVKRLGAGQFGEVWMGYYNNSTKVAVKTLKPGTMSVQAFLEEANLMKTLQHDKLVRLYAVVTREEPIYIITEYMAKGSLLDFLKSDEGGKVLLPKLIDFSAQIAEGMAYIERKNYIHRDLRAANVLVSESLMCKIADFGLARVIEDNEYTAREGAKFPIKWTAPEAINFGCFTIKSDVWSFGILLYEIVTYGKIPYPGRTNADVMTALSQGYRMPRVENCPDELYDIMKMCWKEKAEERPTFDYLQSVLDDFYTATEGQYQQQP
Method: as §1, §2

[3] = 30 mg/kg IP once daily from day 14 (group 3)
[4] = 7.5 mg/kg IP, day 14, 2, 5 and 24 hours
[5] = 7.5 mg/kg IP, study day 14, 2, 5 and 24 hours
[6] = 15 mg/kg IP once daily day 14-21 (group 4)
[7] = 15 mg/kg IP, day 14, 5 and 24 hours
[8] = 15 mg/kg IP, study day 14, 5 and 24 hours
[9] = 30 mg/kg IP once daily day 14-21 (group 3)
[10] = 30 mg/kg IP, day 21, 2, 5 and 24 hours

Sequence of Lyn B (P07948 1-491 isoform P07948-2, species assumed): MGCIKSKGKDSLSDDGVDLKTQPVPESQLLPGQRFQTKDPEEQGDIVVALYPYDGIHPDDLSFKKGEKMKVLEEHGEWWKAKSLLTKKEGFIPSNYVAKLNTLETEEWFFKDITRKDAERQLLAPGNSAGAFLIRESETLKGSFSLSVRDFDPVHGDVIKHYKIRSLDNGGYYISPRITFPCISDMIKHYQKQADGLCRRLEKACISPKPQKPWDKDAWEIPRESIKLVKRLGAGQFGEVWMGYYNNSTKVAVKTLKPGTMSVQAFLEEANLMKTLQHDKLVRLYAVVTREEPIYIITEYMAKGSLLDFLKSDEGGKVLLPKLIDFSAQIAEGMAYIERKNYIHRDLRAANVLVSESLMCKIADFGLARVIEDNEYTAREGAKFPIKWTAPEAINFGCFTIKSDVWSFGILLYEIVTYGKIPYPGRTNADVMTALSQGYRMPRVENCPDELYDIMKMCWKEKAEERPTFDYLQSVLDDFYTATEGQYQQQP

CC(O)COCC(Cc1ccc(O)cc1)NC(=O)CCc1ccccc1 (single isomer, unassigned) [E1]
modulation of LynB tyrosine kinase activity (Lyn B): had no effect
Mean group body weight Day 14 ([1]; 7.5 mg/kg IP (group 5)): 287.60 ± 5.14 g
Mean group body weight Day 7 ([1]; 7.5 mg/kg IP (group 5)): 258.90 ± 4.41 g
Mean group body weight Baseline ([1]; 7.5 mg/kg IP (group 5)): 245.80 ± 2.54 g
Mean group body weight Day 21 ([1]; 7.5 mg/kg IP once daily from day 14 (group 5)): 303.80 ± 6.26 g
Mean group body weight Day 14 ([1]; 15 mg/kg IP (group 4)): 289.80 ± 3.27 g
Mean group body weight Day 7 ([1]; 15 mg/kg IP (group 4)): 259.20 ± 3.29 g
Mean group body weight Baseline ([1]; 15 mg/kg IP (group 4)): 245.00 ± 2.80 g
Mean group body weight Day 21 ([1]; 15 mg/kg IP once daily from day 14 (group 4)): 298.50 ± 3.27 g
Mean group body weight Day 14 ([1]; 30 mg/kg IP (group 3)): 288.70 ± 5.51 g
Mean group body weight Day 7 ([1]; 30 mg/kg IP (group 3)): 261.20 ± 4.45 g
Mean group body weight Baseline ([1]; 30 mg/kg IP (group 3)): 245.20 ± 3.19 g
Mean group body weight Day 21 [1, 3]: 303.30 ± 6.01 g
delta force right minus left leg, Day 14 Pretreatment ([2]; 7.5 mg/kg IP (group 5)): 50.10 ± 0.64 g
mean Von Frey force, left operated leg, Day 14 Pretreatment ([2]; 7.5 mg/kg IP (group 5)): 9.90 ± 0.64 g
difference (delta) force between right healthy leg and left operated leg, Baseline ([2]; 7.5 mg/kg IP (group 5)): 0.00 ± 0.00 g
mean Von Frey force required for withdrawal of the left operated leg, Baseline ([2]; 7.5 mg/kg IP (group 5)): 56.60 ± 3.40 g
inhibition of allodynia compared to the pretreatment value of delta withdrawal force [2, 4]: inhibited allodynia
pain relief activity, delta withdrawal force between the two legs vs. Vehicle [2, 4]: significant pain relief activity
inhibition of allodynia compared to the pretreatment value of delta withdrawal force ([2]; 7.5 mg/kg IP, day 21, 5 hours): inhibited allodynia
pain relief activity, delta withdrawal force between the two legs vs. Vehicle ([2]; 7.5 mg/kg IP, day 21 pretreatment, 2, 5, 24 and 48 hours): significant pain relief activity
inhibition of allodynia (Von Frey) compared to the Vehicle control [2, 5]: effectively inhibited allodynia
inhibition of allodynia (Von Frey) compared to the pretreatment value [2, 5]: inhibited allodynia
inhibition of allodynia (Von Frey) compared to the pretreatment value ([2]; 7.5 mg/kg IP, study day 21, 5 hours): inhibited allodynia
inhibition of allodynia (Von Frey) compared to the Vehicle control ([2]; 7.5 mg/kg IP, study day 21 pretreatment and 2, 5, 24 and 48 hours): inhibited allodynia
conclusion: pain analgesic item, parameters of mechanical allodynia ([2]; 7.5 mg/kg, 2, 5 and 24 hours day 14, 2, 5, 24 and 48 hours day 21): effective
delta force right minus left leg, Day 14 Post-treatment 2 hours ([2]; 15 mg/kg IP (group 4)): 48.20 ± 5.67 g
delta force right minus left leg, Day 14 Post-treatment 5 hours ([2]; 15 mg/kg IP (group 4)): 29.20 ± 6.66 g
mean Von Frey force, left operated leg, Day 14 Post-treatment 2 hours ([2]; 15 mg/kg IP (group 4)): 11.80 ± 5.67 g
delta force right minus left leg, Day 14 Pretreatment ([2]; 15 mg/kg IP (group 4)): 50.20 ± 0.90 g
mean Von Frey force, left operated leg, Day 14 Pretreatment ([2]; 15 mg/kg IP (group 4)): 9.80 ± 0.90 g
difference (delta) force between right healthy leg and left operated leg, Baseline ([2]; 15 mg/kg IP (group 4)): 0.00 ± 0.00 g
mean Von Frey force required for withdrawal of the left operated leg, Baseline ([2]; 15 mg/kg IP (group 4)): 56.60 ± 3.40 g
delta force right minus left leg, Day 21 Post-treatment 48 hours [2, 6]: 39.80 ± 4.80 g
mean Von Frey force, left operated leg, Day 21 Post-treatment 48 hours [2, 6]: 20.20 ± 4.80 g
inhibition of allodynia compared to the pretreatment value of delta withdrawal force [2, 7]: inhibited allodynia
pain relief activity, delta withdrawal force between the two legs vs. Vehicle [2, 7]: significant pain relief activity
pain relief activity, delta withdrawal force between the two legs vs. Vehicle ([2]; 15 mg/kg IP, day 21 pretreatment, 2, 5 and 24 hours): significant pain relief activity
inhibition of allodynia (Von Frey) compared to the Vehicle control [2, 8]: inhibited allodynia
inhibition of allodynia (Von Frey) compared to the pretreatment value [2, 8]: inhibited allodynia
inhibition of allodynia (Von Frey) compared to the Vehicle control ([2]; 15 mg/kg IP, study day 14, 2 hours): did not inhibit allodynia
inhibition of allodynia (Von Frey) compared to the Vehicle control ([2]; 15 mg/kg IP, study day 21, 48 hours): less effective
inhibition of allodynia (Von Frey) compared to the Vehicle control ([2]; 15 mg/kg IP, study day 21 pretreatment, 2, 5 and 24 hours): inhibited allodynia
conclusion: pain analgesic item, parameters of mechanical allodynia ([2]; 15 mg/kg, 5 and 24 hours day 14, 2, 5 and 24 hours day 21): effective
delta force right minus left leg, Day 14 Post-treatment 2 hours ([2]; 30 mg/kg IP (group 3)): 46.80 ± 1.70 g
delta force right minus left leg, Day 14 Post-treatment 24 hours ([2]; 30 mg/kg IP (group 3)): 34.80 ± 6.25 g
mean Von Frey force, left operated leg, Day 14 Post-treatment 2 hours ([2]; 30 mg/kg IP (group 3)): 13.20 ± 1.70 g
mean Von Frey force, left operated leg, Day 14 Post-treatment 5 hours ([2]; 30 mg/kg IP (group 3)): 30.60 ± 5.10 g
delta force right minus left leg, Day 14 Pretreatment ([2]; 30 mg/kg IP (group 3)): 49.50 ± 1.06 g
mean Von Frey force, left operated leg, Day 14 Pretreatment ([2]; 30 mg/kg IP (group 3)): 10.50 ± 1.06 g
difference (delta) force between right healthy leg and left operated leg, Baseline ([2]; 30 mg/kg IP (group 3)): 0.00 ± 0.00 g
mean Von Frey force required for withdrawal of the left operated leg, Baseline ([2]; 30 mg/kg IP (group 3)): 60.00 ± 0.00 g
delta force right minus left leg, Day 21 Post-treatment 48 hours [2, 9]: 51.10 ± 0.82 g
mean Von Frey force, left operated leg, Day 21 Post-treatment 2 hours [2, 9]: 19.40 ± 1.80 g
mean Von Frey force, left operated leg, Day 21 Post-treatment 5 hours [2, 9]: 22.90 ± 4.64 g
mean Von Frey force, left operated leg, Day 21 Post-treatment 24 hours [2, 9]: 17.50 ± 2.48 g
mean Von Frey force, left operated leg, Day 21 Post-treatment 48 hours [2, 9]: 8.90 ± 0.82 g
delta force right minus left leg, Day 21 Pretreatment [2, 3]: 47.00 ± 1.76 g
mean Von Frey force, left operated leg, Day 21 Pretreatment [2, 3]: 13.00 ± 1.76 g
inhibition of allodynia compared to the pretreatment value of delta withdrawal force ([2]; 30 mg/kg IP, day 14, 5 hours): inhibited allodynia
pain relief activity, delta withdrawal force between the two legs vs. Vehicle ([2]; 30 mg/kg IP, day 14, 5 hours): significant pain relief activity
inhibition of allodynia compared to the pretreatment value of delta withdrawal force [2, 10]: inhibited allodynia
pain relief activity, delta withdrawal force between the two legs vs. Vehicle [2, 10]: significant pain relief activity
inhibition of allodynia (Von Frey) compared to the pretreatment value ([2]; 30 mg/kg IP, study day 14, 5 hours): inhibited allodynia
inhibition of allodynia (Von Frey) compared to the pretreatment value ([2]; 30 mg/kg IP, study day 21, 2, 5 and 24 hours): inhibited allodynia
conclusion: pain analgesic item, parameters of mechanical allodynia ([2]; 30 mg/kg, at 5 post administration day 14, 2, 5 and 24 hours day 21): effective
duration of analgesic effect post administration ([2]; summary statement): more than 24 hours
behaviour of the operated paw on the Von Frey apparatus ([2]; treated animals): laid completely the operated paw on the metal mesh surface
modulation of LynA tyrosine kinase activity (Lyn A): activated
